{
  "source": "patent US20240115663A1",
  "about": "“COMPOSITIONS COMPRISING AT LEAST AN INSULIN AND AN AMYLIN RECEPTOR AGONIST FOR TREATING DIABETES, IN A PATIENT/PERSON HAVING A BMI OF MORE THAN 28 KG/M² AND/OR AN HBA1C OF MORE THAN 7.6%” (ADOCIA, priority 2022, published 2024)",
  "test": "Phase 2 clinical trial of M1Pram vs Humalog in subjects with type 1 diabetes: body weight change after 16 weeks",
  "assay_type": "in vivo, human",
  "experimental": "A phase 2 clinical trial was conducted to confirm the efficacy and safety of M1Pram in subjects with type 1 diabetes (NCT04816890).\nThe primary objective of the trial was to compare the efficacy of prandial use of M1Pram to Humalog® (insulin lispro) on body weight change after 16 weeks of optimised titration, in combination with a basal insulin.\nIn addition, exploratory objectives included the comparison of the efficacy of prandial use of M1Pram with Humalog® in subgroups of subjects with a body mass index (BMI) and HbA1c above and below the median at screening.\nA post-hoc analysis also included the comparison of the efficacy of prandial use of M1Pram with Humalog® in subgroups of subjects with a body mass index (BMI)>=30 kg/m^2.\nThe primary endpoint was the body weight change from baseline to week 16 of treatment.\nIn addition, exploratory endpoints included analysis of the subgroups of the primary endpoint according to BMI and HbA1c below and above the median.\nA post-hoc analysis was also performed to analyze the subgroups of the primary endpoint according to BMI>=30 kg/m^2.\nThis was a multicentric, open-label, randomized, two-arm parallel, active-comparator controlled phase 2 clinical trial evaluating the efficacy and safety of M1Pram in subjects with type 1 diabetes.\nKey inclusion criteria included subjects • with T1D • aged between 18 and 64 years • with a Body Mass Index (BMI) between 25.0 and 35.0 kg/m^2, both inclusive, • with HbA1c between 7.0% and 9.5%, both inclusive • with a Diabetes duration of at least 12 months • Using a multiple dosing insulin therapy (MDI) with a basal insulin and a rapid-acting insulin • having at least two meals per day.\n80 patients were randomized 1:1 to M1Pram or Humalog®.\nThe trial consisted in 4 periods: • an optional a run-in period of 2 to 4 weeks for patients not already using the Continuous Glucose Monitoring (CGM) system used in the trial or either insulin degludec or insulin glargine as basal insulins • a 3-week baseline data recording period • after randomization, a treatment period of about 16 weeks (W1 to 16) • and a safety follow-up period of 1 to 2 weeks after the last product administration.\n37 subjects completed the trial in the Humalog® arm and 34 in the M1 Pram arm. The subgroups were selected depending on the patients' metrics at screening.",
  "data": [
    {"substance": "insulin lispro [Humalog ®]", "values": [
      {"measurement": "Mean BW change in kg (SD)", "setting": "All completers, baseline to week 16 of treatment, T1D subjects, prandial use with basal insulin", "result": "−0.45 (3.12) kg"},
      {"measurement": "Mean BW change in kg (SD)", "setting": "Subgroup BMI <= 28 kg/m^2 at screening, baseline to week 16", "result": "−0.69 (3.19) kg"},
      {"measurement": "Mean BW change in kg (SD)", "setting": "Subgroup BMI > 28 kg/m^2 at screening, baseline to week 16", "result": "−0.17 (3.09) kg"},
      {"measurement": "Mean BW change in kg (SD)", "setting": "Subgroup BMI >= 30 kg/m^2 (post-hoc), baseline to week 16", "result": "−0.57 (3.60) kg"},
      {"measurement": "Mean BW change in kg (SD)", "setting": "Subgroup HbA1c <= 7.6% at screening, baseline to week 16", "result": "−0.87 (2.20) kg"},
      {"measurement": "Mean BW change in kg (SD)", "setting": "Subgroup HbA1c > 7.6% at screening, baseline to week 16", "result": "0.04 (3.95) kg"}
    ]}
  ]
}
